Assay results as given in ChEMBL document CHEMBL3621140, “Sulfonamide derivatives containing dihydropyrazole moieties selectively and potently inhibit MMP-2/MMP-9: Design, synthesis, inhibitory activity and 3D-QSAR analysis” (Bioorg Med Chem Lett, 2015).

How the values were obtained:
HepG2 = assay: Antiproliferative activity against human HepG2 cells incubated for 48 hrs by MTT assay; type: functional, cell-based; details: HepG2, 48 h
A549 [1] = assay: cells; details: Homo sapiens, A549, 48 h
HeLa = assay: Antiproliferative activity against human HeLa cells incubated for 48 hrs by MTT assay; type: functional, cell-based
[2] = target: 72 kDa type IV collagenase (Homo sapiens, UniProt P08253); assay: Inhibition of APMA-activated human recombinant MMP2 incubated for 5 mins using 4-nitrophenylacetate substrate by esterase assay
MCF7 = assay: Antiproliferative activity against human MCF7 cells incubated for 48 hrs by MTT assay; type: functional, cell-based; details: MCF7, 48 h
[3] = target: Matrix metalloproteinase-9 (Homo sapiens, UniProt P14780); assay: Inhibition of APMA-activated human recombinant MMP9 incubated for 5 mins using 4-nitrophenylacetate substrate by esterase assay
[4] = Cytotoxicity against HEK293T cells incubated for 48 hrs by MTT assay; type: cell-based, HEK-293T; details: human
A549 [5] = assay: Induction of apoptosis in human A549 cells by AnnexinV-FITC and propidium iodide staining based flow cytometry; type: functional, cell-based
A549 [6] = assay: Induction of apoptosis in human A549 cells assessed as viable cells at 16 uM by AnnexinV-FITC and propidium iodide staining based flow cytometry (reference value: 85.3%); type: functional; details: read-out: Activity
A549 [7] = assay: Induction of apoptosis in human A549 cells assessed as early apoptotic cells level at 16 uM by AnnexinV-FITC and propidium iodide staining based flow cytometry (reference value: 5.08%); type: functional
A549 [8] = assay: Induction of apoptosis in human A549 cells assessed as late apoptotic cells level at 16 uM by AnnexinV-FITC and propidium iodide staining based flow cytometry (reference value: 8.81%); type: functional
A549 [9] = assay: Induction of apoptosis in human A549 cells assessed as viable cells at 2 uM by AnnexinV-FITC and propidium iodide staining based flow cytometry (reference value: 85.3%); type: functional; details: read-out: Activity
A549 [10] = assay: Induction of apoptosis in human A549 cells assessed as viable cells at 4 uM by AnnexinV-FITC and propidium iodide staining based flow cytometry (reference value: 85.3%); type: functional; details: read-out: Activity
A549 [11] = assay: Induction of apoptosis in human A549 cells assessed as early apoptotic cells level at 2 uM by AnnexinV-FITC and propidium iodide staining based flow cytometry (reference value: 5.08%); type: functional
A549 [12] = assay: Induction of apoptosis in human A549 cells assessed as necrotic cells level at 16 uM by AnnexinV-FITC and propidium iodide staining based flow cytometry (reference value: 0.964%); type: functional
A549 [13] = assay: Induction of apoptosis in human A549 cells assessed as necrotic cells level at 4 uM by AnnexinV-FITC and propidium iodide staining based flow cytometry (reference value: 0.964%); type: functional
A549 [14] = assay: Induction of apoptosis in human A549 cells assessed as early apoptotic cells level at 4 uM by AnnexinV-FITC and propidium iodide staining based flow cytometry (reference value: 5.08%); type: functional
A549 [15] = assay: Induction of apoptosis in human A549 cells assessed as necrotic cells level at 2 uM by AnnexinV-FITC and propidium iodide staining based flow cytometry (reference value: 0.964%); type: functional
A549 [16] = assay: Induction of apoptosis in human A549 cells assessed as late apoptotic cells level at 2 uM by AnnexinV-FITC and propidium iodide staining based flow cytometry (reference value: 8.81%); type: functional
A549 [17] = assay: Induction of apoptosis in human A549 cells assessed as late apoptotic cells level at 4 uM by AnnexinV-FITC and propidium iodide staining based flow cytometry (reference value: 8.81%); type: functional

Chain of 72 kDa type IV collagenase (P08253 whole entry): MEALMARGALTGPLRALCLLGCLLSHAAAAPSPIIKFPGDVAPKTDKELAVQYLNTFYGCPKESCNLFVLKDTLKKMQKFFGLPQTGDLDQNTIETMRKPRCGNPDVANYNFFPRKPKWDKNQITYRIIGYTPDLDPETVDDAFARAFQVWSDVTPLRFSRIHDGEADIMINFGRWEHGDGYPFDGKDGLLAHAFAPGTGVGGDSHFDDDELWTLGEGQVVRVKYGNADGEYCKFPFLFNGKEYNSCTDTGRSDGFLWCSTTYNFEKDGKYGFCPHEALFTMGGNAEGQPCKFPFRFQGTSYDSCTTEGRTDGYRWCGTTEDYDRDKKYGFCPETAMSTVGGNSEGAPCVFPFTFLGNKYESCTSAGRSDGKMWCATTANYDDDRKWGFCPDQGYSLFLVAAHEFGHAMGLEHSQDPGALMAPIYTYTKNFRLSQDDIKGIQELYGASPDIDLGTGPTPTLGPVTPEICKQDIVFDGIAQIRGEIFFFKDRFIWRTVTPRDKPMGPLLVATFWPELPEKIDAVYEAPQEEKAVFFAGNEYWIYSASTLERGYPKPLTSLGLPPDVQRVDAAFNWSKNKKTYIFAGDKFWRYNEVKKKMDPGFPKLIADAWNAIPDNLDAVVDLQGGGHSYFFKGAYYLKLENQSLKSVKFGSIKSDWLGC
Chain of Matrix metalloproteinase-9 (P14780 whole entry): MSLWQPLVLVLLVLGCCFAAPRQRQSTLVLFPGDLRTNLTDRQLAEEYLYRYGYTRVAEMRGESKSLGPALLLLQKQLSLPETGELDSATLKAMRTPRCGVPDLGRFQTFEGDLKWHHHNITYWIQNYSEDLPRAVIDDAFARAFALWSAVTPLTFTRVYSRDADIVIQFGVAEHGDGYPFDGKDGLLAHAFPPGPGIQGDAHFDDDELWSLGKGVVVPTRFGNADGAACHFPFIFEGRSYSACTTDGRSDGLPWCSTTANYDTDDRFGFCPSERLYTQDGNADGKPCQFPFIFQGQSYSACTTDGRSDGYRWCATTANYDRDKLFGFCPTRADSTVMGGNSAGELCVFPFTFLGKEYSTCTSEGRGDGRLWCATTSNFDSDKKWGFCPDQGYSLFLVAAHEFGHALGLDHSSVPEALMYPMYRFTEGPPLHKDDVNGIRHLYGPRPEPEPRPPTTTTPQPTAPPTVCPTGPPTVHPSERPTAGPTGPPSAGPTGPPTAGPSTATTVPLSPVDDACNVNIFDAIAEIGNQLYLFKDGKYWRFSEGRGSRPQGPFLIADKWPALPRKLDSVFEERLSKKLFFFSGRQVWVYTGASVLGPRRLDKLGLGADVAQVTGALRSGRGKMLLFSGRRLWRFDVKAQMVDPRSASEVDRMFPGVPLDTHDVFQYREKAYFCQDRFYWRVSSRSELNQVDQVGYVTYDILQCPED

IC50 (HepG2)	IC50 (A549 [1])	IC50 (HeLa)	IC50 ([2]; read-out: IC50)	IC50 (MCF7)	IC50 [3]	Structure (SMILES)	CC50 at 48 h [4]	further results
7.04 µM	7.77 µM	8.61 µM	6.81 µM	9.89 µM	16 µM	Cc1ccc(C2=NN(c3ccc(S(N)(=O)=O)cc3)C(c3cccc4ccccc34)C2)cc1 (centres undefined)	51.3 µM	
0.76 µM	2.15 µM	7.55 µM		6.88 µM		Cc1ccc(-c2cc(C(F)(F)F)nn2-c2ccc(S(N)(=O)=O)cc2)cc1 [CELECOXIB]	54.4 µM	
5.38 µM	2.84 µM	6.37 µM	2.91 µM	10 µM	5.43 µM	Cc1ccccc1C1=NN(c2ccc(S(N)(=O)=O)cc2)C(c2cccc3ccccc23)C1 (centres undefined)	51.2 µM	
24.8 µM	7.83 µM	21.1 µM	23.8 µM	13.1 µM	5.96 µM	NS(=O)(=O)c1ccc(N2N=C(c3cccc(F)c3)CC2c2ccc3ccccc3c2)cc1 (centres undefined)	49 µM	
16.4 µM	2.98 µM	11.5 µM	2.7 µM	18 µM	5.47 µM	NS(=O)(=O)c1ccc(N2N=C(c3ccc(Cl)cc3)CC2c2cccc3ccccc23)cc1 (centres undefined)	49.2 µM	
14.9 µM	8.19 µM	28.8 µM	11.4 µM	28.8 µM	7.97 µM	NS(=O)(=O)c1ccc(N2N=C(c3cccc(Br)c3)CC2c2cccc3ccccc23)cc1 (centres undefined)	42.2 µM	IC50 ([2]; read-out: pIC50 (converted)): 11.2 µM
22.3 µM	9.31 µM	35.4 µM	9.9 µM	50.6 µM	19 µM	COc1ccc(C2=NN(c3ccc(S(N)(=O)=O)cc3)C(c3ccc4ccccc4c3)C2)cc1 (centres undefined)	45.4 µM	
29 µM	10.3 µM	23.7 µM	17.8 µM	9.15 µM	13.9 µM	NS(=O)(=O)c1ccc(N2N=C(c3cccc(Br)c3)CC2c2ccc3ccccc3c2)cc1 (centres undefined)	47 µM	
27.8 µM	6.51 µM	30.1 µM	4.27 µM	26.4 µM	8.61 µM	COc1ccc(C2=NN(c3ccc(S(N)(=O)=O)cc3)C(c3cccc4ccccc34)C2)cc1 (centres undefined)	47.1 µM	IC50 ([2]; read-out: pIC50 (converted)): 4.17 µM
36.4 µM	5.82 µM	30.6 µM	4.83 µM	26.1 µM	6.72 µM	COc1cccc(C2=NN(c3ccc(S(N)(=O)=O)cc3)C(c3cccc4ccccc34)C2)c1 (centres undefined)	45.3 µM	
18.1 µM	12 µM	32 µM	15.7 µM	11.1 µM	6.91 µM	NS(=O)(=O)c1ccc(N2N=C(c3cccc(I)c3)CC2c2ccc3ccccc3c2)cc1 (centres undefined)	55.9 µM	
9.17 µM	17.8 µM	35.4 µM	14.9 µM	38.2 µM	18.3 µM	CCOc1ccc(C2=NN(c3ccc(S(N)(=O)=O)cc3)C(c3ccc4ccccc4c3)C2)cc1 (centres undefined)	53.8 µM	
8.32 µM	6.9 µM	17.6 µM	2.81 µM	18.2 µM	4.95 µM	Cc1ccc(C2=NN(c3ccc(S(N)(=O)=O)cc3)C(c3ccc4ccccc4c3)C2)cc1 (centres undefined)	53.1 µM	
20.7 µM	6.95 µM	26.1 µM	16.8 µM	12.3 µM	19.8 µM	NS(=O)(=O)c1ccc(N2N=C(c3ccc(F)cc3)CC2c2ccc3ccccc3c2)cc1 (centres undefined)	49.5 µM	
6.99 µM	1.9 µM	12.1 µM	0.21 µM	18.1 µM	1.87 µM	Cc1ccc(C2=NN(c3ccc(S(N)(=O)=O)cc3)C(c3cccc4ccccc34)C2)c(C)c1 (centres undefined)	52.5 µM	Activity (A549 [5]): Dose-dependent effect; viability at 16 µM (A549 [6]): 78.3%; Activity (A549 [7]): 3.88%; Activity (A549 [8]): 16.9%; viability at 2 µM (A549 [9]): 82.8%; viability at 4 µM (A549 [10]): 81.1%; Activity (A549 [11]): 5.91%; Activity (A549 [12]): 0.868%; Activity (A549 [13]): 1.14%; Activity (A549 [14]): 4.84%; Activity (A549 [15]): 1.1%; Activity (A549 [16]): 10.2%; Activity (A549 [17]): 12.9%
10 µM	7.38 µM	29.1 µM	8.63 µM	23.6 µM	12 µM	NS(=O)(=O)c1ccc(N2N=C(c3ccccc3Cl)CC2c2cccc3ccccc23)cc1 (centres undefined)	53.1 µM	IC50 ([2]; read-out: pIC50 (converted)): 8.51 µM
5.83 µM	3.14 µM	9.87 µM	3.24 µM	8.63 µM	4.29 µM	Cc1cccc(C2=NN(c3ccc(S(N)(=O)=O)cc3)C(c3cccc4ccccc34)C2)c1 (centres undefined)	48.2 µM	
25 µM	2.76 µM	19.2 µM	3.6 µM	12.4 µM	5.88 µM	NS(=O)(=O)c1ccc(N2N=C(c3ccc(Cl)cc3)CC2c2ccc3ccccc3c2)cc1 (centres undefined)	54.8 µM	
31.1 µM	2.16 µM	16.4 µM	14.8 µM	8.64 µM	8.72 µM	NS(=O)(=O)c1ccc(N2N=C(c3ccccc3Cl)CC2c2ccc3ccccc3c2)cc1 (centres undefined)	49.9 µM	
8.06 µM	6.83 µM	26 µM	9.43 µM	18.1 µM	12.9 µM	NS(=O)(=O)c1ccc(N2N=C(c3cccc(I)c3)CC2c2cccc3ccccc23)cc1 (centres undefined)	46.9 µM	
7.68 µM	7.64 µM	26.4 µM	3.86 µM	11.1 µM	5.92 µM	Cc1cccc(C2=NN(c3ccc(S(N)(=O)=O)cc3)C(c3ccc4ccccc4c3)C2)c1 (centres undefined)	52.4 µM	
6.88 µM	6.84 µM	15.6 µM	11.4 µM	16.3 µM	7.91 µM	Cc1ccccc1C1=NN(c2ccc(S(N)(=O)=O)cc2)C(c2ccc3ccccc3c2)C1 (centres undefined)	51.7 µM	
19.1 µM	12.9 µM	20.2 µM	7.92 µM	22.6 µM	10.9 µM	NS(=O)(=O)c1ccc(N2N=C(c3ccccc3)CC2c2cccc3ccccc23)cc1 (centres undefined)	51.4 µM	
26 µM	8.67 µM	36.5 µM	2.15 µM	13.6 µM	4.68 µM	COc1cccc(C2=NN(c3ccc(S(N)(=O)=O)cc3)C(c3ccc4ccccc4c3)C2)c1 (centres undefined)	49.4 µM	
	2.86 µM					COc1cc2ncnc(Nc3ccc(F)c(Cl)c3)c2cc1OCCCN1CCOCC1 [GEFITINIB]		
8.66 µM	3.33 µM	18.5 µM	0.81 µM	35.1 µM	3.19 µM	CCOc1ccc(C2=NN(c3ccc(S(N)(=O)=O)cc3)C(c3cccc4ccccc34)C2)cc1 (centres undefined)	59.5 µM	
17.9 µM	8.42 µM	13 µM	12.6 µM	21.6 µM	33.8 µM	NS(=O)(=O)c1ccc(N2N=C(c3ccccc3)CC2c2ccc3ccccc3c2)cc1 (centres undefined)	50.5 µM	

Structure (SMILES)	IC50 (HepG2)	IC50 (A549 [1])	IC50 (HeLa)	IC50 ([2]; read-out: IC50)	IC50 (MCF7)	IC50 [3]	CC50 at 48 h [4]	further results
C[C@@]1(O)c2cccc(O)c2C(=O)C2=C(O)[C@]3(O)C(=O)C(C(N)=O)=C(O)C[C@@H]3C[C@@H]21				1.26 µM		2.52 µM		
